Data as given in patent US6395762B1, “Phenyl amino squarate and thiadiazole dioxide beta-3 adrenergic receptor agonists” (American Home Products Corporation, priority 2000, dated 2002).
Where a name gives a salt, the structure may show the parent alone. Read-outs that look alike come from different tables or passages of the source.

Assays:
[1] = biological target: T1, human β3-AR (Homo sapiens, UniProt P13945); assay: cAMP accumulation (SPA) in CHO cells transfected with human β3-AR; format: cell-based; conditions: for IA(β3): maximal response of compound relative to maximal response of isoproterenol at 10^−5 M
T1 construct: Full-length β3-AR clones (402 amino acids) containing the last 6 amino acids of hβ3-AR; expressed in transfected cells; host or cells: CHO (Chinese hamster ovary) cells
T1 sequence (P13945 whole entry): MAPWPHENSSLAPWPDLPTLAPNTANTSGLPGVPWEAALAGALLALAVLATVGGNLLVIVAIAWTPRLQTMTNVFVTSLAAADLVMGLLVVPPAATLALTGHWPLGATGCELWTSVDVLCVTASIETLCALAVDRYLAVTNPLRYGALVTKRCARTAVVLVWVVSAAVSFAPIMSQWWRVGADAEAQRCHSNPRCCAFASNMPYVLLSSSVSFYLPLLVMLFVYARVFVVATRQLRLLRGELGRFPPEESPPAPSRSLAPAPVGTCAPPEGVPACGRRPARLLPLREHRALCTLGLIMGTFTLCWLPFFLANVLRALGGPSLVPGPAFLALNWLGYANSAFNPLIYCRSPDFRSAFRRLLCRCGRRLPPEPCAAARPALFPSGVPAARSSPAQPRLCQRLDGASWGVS
Method: The ability of the compounds of this invention to treat or inhibit disorders related to insulin resistance or hyperglycemia was confirmed with representative compounds of this invention in the following standard pharmacological test procedures, which measured the binding selectivity of the β1-, β2-, and β3-AR. Binding to the receptors was measured in Chinese Hamster ovary (CHO) cells that were transfected with β1-, β2-, and β3-AR's. The following briefly summarizes the procedures used and results obtained.
Cloning of Human β3-AR Genomic DNA: cDNA was constructed by ligating four polymerase chain reaction (PCR) products using the following primers: an ATG-Narl fragment, sense primer 5′-[…]3′ and anti-sense primer 5′[…]3′; a Narl-Accl fragment, 5′[…]3′ as sense and 5′[…]3′ as anti-sense primer; an Accli—Styl fragment, sense primer 5′[…]3′ and anti-sense primer 5′[…]3′ and a Styl-TAG fragment, with sense primer 5′ […]3′ and anti-sense primer 5′ […]3′ . The corresponding primer sequences are described in Mantzoros, C. S., et.al., Diabetes, 1996, 45, 909-914. The four fragments are ligated into a pUC 18 plasmid (Gibco-BRL) and sequenced. Full-length β3-AR clones (402 amino acids) containing the last 6 amino acids of hβ3-AR are prepared with the β3-βARpcDNA3 from ATTC.
Binding Procedure: Clones expressing receptor levels of 70 to 110 fmoles/mg protein were used in the test procedures. CHO cells were grown in 24-well tissue culture plates in Dulbecco's Modified Eagle Media with 10% fetal bovine serum, MEM non-essential amino acids, Penicillin—Streptomycin and Geneticin. On the day of test procedure, growth medium was replaced with preincubation media (Dulbecco's Modified Eagle Media) and incubated for 30 minutes at 37° C. Pre-incubation medium was replaced with 0.2 ml treatment medium containing DMEM media containing 250 μM IBMX (isobutyl-1-methylxantine) plus 1 mM ascorbic acid with test compound dissolved in DMSO. Test compounds were assayed over a concentration range of 10^−9 M to 10^−5 M for β3-AR transfected cells and 10^−8 to 10^−4 M for β1-AR and β2-AR transfected cells. Isoproterenol (10^−5 M) was used as an internal standard for comparison of activity. Cells were incubated at 37° C. on a rocker for 30 min with the β3-AR transfected cells and 15 min with β1-AR and β2-AR transfected cells. Incubation was stopped by the addition of 0.2N HCl and the acid was neutralized with 2.5N NaOH. The plates, containing the cells and neutralized media, were stored at −20° C. until ready to test for cAMP using the SPA test kit (Amersham).
Data Analysis and Results: Data collected from the SPA test procedure were analyzed as percent of the maximal isoproterenol response at 10^−5 M. Activity curves were plotted using the SAS statistical and graphics software.

[2] = CHO cells transfected with human β3-AR
[3] = CHO cells transfected with human β3-AR, cAMP by SPA, 30 min at 37° C., 10^−9 M to 10^−5 M, read-out: EC50(β3)

| SMILES | melting point | IA(β3) [1, 2] | EC50 [1] | EC50 [1, 3] |
| --- | --- | --- | --- | --- |
| CCCCCCCCCCNc1c(Nc2ccc(CCCNC[C@H](O)COc3cccc4[nH]c5ccccc5c34)cc2)c(=O)c1=O [Compound 17, 3-(4-{[(2S)-3-(9H-Carbazol-4-yloxy)-2-hydroxy-propylamino]-propyl}-phenylamino)-4-decylamino-cyclobut-3-ene-1,2-dione] | 225 °C | 0.31 |  |  |
| CCCCNc1c(Nc2ccc(CC(C)NC[C@H](O)c3cccc(Cl)c3)cc2)c(=O)c1=O (stereo partly drawn) [Compound 1, 3-Butylamino-4-(4-{2-[(2R)-2-(3-chloro-phenyl)-2-hydroxy-ethylamino]-propyl}-phenylamino)-cyclobut-3-ene-1,2-dione] | 176 to 179 °C | 0.16 | 115 nM |  |
| COc1ccc(CCNC2=NS(=O)(=O)N=C2Nc2ccc(CC(C)NC[C@H](O)COc3ccc(O)cc3)cc2)cc1 (stereo partly drawn) [Compound 36, (S)-4-{2-hydroxy-3-[2-(4-{4-[2-(4methoxy-phenyl)-ethylamino]-1 1-dioxo-1H-1.lambda(6).-[1,2,5]thiadiazol-3-ylamino}-phenyl)-1-methyl-ethylamino]-propoxy}-phenol] | 95 to 100 °C | 0.91 |  | 5 nM |
| CC(Cc1ccc(NC2=NS(=O)(=O)N=C2NCC2(c3ccccc3)CCCC2)cc1)NC[C@H](O)COc1ccc(OCc2ccccc2)cc1 (stereo partly drawn) [Compound 30, (2S)-1-(4-Benzyloxy-phenoxy)-3-[2-(4-{1 ,-dioxo-4-[(1-phenyl-cyclopentylmethyl)-amino]-1H-1(lambda(6))-[1,2,5]thiadiazol-3-ylamino}-phenyl)-1-methyl-ethylamino]-propan-2-ol] | 103 to 105 °C | 0.93 |  | 116 nM |
| CCCCCCCCNC1=NS(=O)(=O)N=C1Nc1ccc(CC(C)NC[C@H](O)COc2ccc3c(c2)OCO3)cc1 (stereo partly drawn) [Compound 35, (2S)-1-(1,3-Benzodioxol-5-yloxy)-3-{1-methyl-2-[4-(4-octylamino-1,1-dioxo-1H-1.lambda(6).-[1,2,5]thiadiazol-3-ylamino)-phenyl]-ethylamino}-propan-2-ol] | 81 to 86 °C | 0.51 |  | 125 nM |
| CCCCCCCCNC1=NS(=O)(=O)N=C1Nc1ccc(CC(C)NC[C@H](O)COc2ccccc2)cc1 (stereo partly drawn) [Compound 22, (2S)-1-{[1-methyl-2-(4-{[4-(octylamino)-1,1-dioxido-1,2,5-thiadiazol-3-yl]amino}phenyl)ethyl]amino}-3-phenoxypropan-2-ol] | 77 to 82 °C | 0.39 |  |  |
| CCCCCCCCCCNc1c(Nc2ccc(CC(C)NC[C@H](O)COc3ccccc3)cc2)c(=O)c1=O (some centres unmarked) [Compound 23] | 144 to 155 °C | 0.64 |  | 1360 nM |
| CCCCCCCCCCNC1=NS(=O)(=O)N=C1Nc1ccc(CC(C)NC[C@H](O)c2ccc(O)c(NS(C)(=O)=O)c2)cc1 (stereo partly drawn) [Compound 27, N-[5-((1R)-2-{2-[4-(4-Decylamino-1,1-dioxo-1H-1(lambda(6))-[1 2,5]thiadiazol-3-ylamino)-phenyl]-1-methyl-ethylamino}-1-hydroxy-ethyl)-2-hydroxy-phenyl]-methanesulfonamide] | 120 °C (dec.) | 1.27 |  | 9 nM |
| CCCCCCCCNC1=NS(=O)(=O)N=C1Nc1ccc(CC(C)NC[C@H](O)COc2cccc3[nH]c4ccccc4c23)cc1 (stereo partly drawn) [Compound 21, (2S)-1-(9H-Carbazol-4-yloxy)-3-{1-methyl-2-[4-(4-octylamino-1,1-dioxo-1H-1(lambda(6))-[1,2,5]thiadiazol-3-ylamino)-phenyl]-ethylamino}-propan-2-ol] | 121 to 124 °C | 0.64 |  | 64 nM |
| CCCCCCNC(=O)Nc1ccc(C2(CNC3=NS(=O)(=O)N=C3Nc3ccc(CC(C)(C)NC[C@H](O)COc4ccc(O)cc4)cc3)CCCC2)cc1 [Compound 8, 1-Hexyl-3-[4-(1-{[4-(4-{2-[(2S)-2-hydroxy-3-(4-hydroxy-phenoxy)-propylamino]-2-methyl-propyl}-phenylamino)-1,1-dioxo-1H-1.lambda(6).-{1,2,5]thiadiazol-3-ylamino]-methyl}-cyclopentyl)-phenyl]-urea] | 154.5 to 158.5 °C | 0.91 |  | 10 nM |
| CCCCCCCCNc1c(Nc2ccc(CC(C)NC[C@H](O)COc3cccc4[nH]c5ccccc5c34)cc2)c(=O)c1=O (stereo partly drawn) [Compound 16, 3-(4-{2-[(2S)-3-(9H-Carbazol-4-yloxy)-2-hydroxy-propylamino]-propyl}-phenylamino)-4-octylamino-cyclobut-3-ene-1,2-dione] | 125 to 131 °C | 0.47 |  | 233 nM |
| CC(C)(Cc1ccc(NC2=NS(=O)(=O)N=C2NCC(c2ccccc2)c2ccccc2)cc1)NC[C@H](O)COc1ccc(OCc2ccccc2)cc1 [Compound 28] | 222.5 to 224.5 °C (dec.) | 0.83 |  | 1420 nM |
| CCCCCCCCCCNc1c(Nc2ccc(CC(C)NC[C@H](O)COc3ccc(O)cc3)cc2)c(=O)c1=O (some centres unmarked) [Compound 15] | 130 to 132 °C | 0.97 |  | 86 nM |
| CCCCCCCCNC1=NS(=O)(=O)N=C1Nc1ccc(CC(C)NC[C@H](O)COc2ccc(O)cc2)cc1 (stereo partly drawn) [Compound 12, 4-((2S)-2-Hydroxy-3-{1-methyl-2-[4-(4-octylamino-1,1-dioxo-1H-1-.lambda(6).-[1,2,5]thiadiazol-3-ylamino)-phenyl]-1-ethylamino}-propoxy)-phenol] | 203.5 to 206 °C | 1.45 |  | 11 nM |
| CCCCCCCCNC1=NS(=O)(=O)N=C1Nc1ccc(CCNC[C@H](O)COc2ccc(O)cc2)cc1 [Compound 5, 4-((2S)-2-Hydroxy-3-{2-[4-(4-octylamino-1,1-dioxo-1H-1.lambda(6).-[1,2,5]thiadiazol-3-ylamino)-phenyl]-ethylamino}-propoxy)-phenol] | 98 °C (dec.) | 0.75 |  | 18 nM |
| CCCCCCCCNc1c(Nc2ccc(CC(C)NC[C@H](O)c3cccc(Cl)c3)cc2)c(=O)c1=O (stereo partly drawn) [Compound 10, 3-(4-{2-[(2R)-2-(3-Chloro-phenyl)-2-hydroxy-ethylamino]-propyl}-phenylamino)-4-octylamino-cyclobut-3-ene-1 2-dione] | 173 to 175 °C | 0.71 |  | 87 nM |
| CCCCCCCCNC1=NS(=O)(=O)N=C1Nc1ccc(CC(C)NC[C@H](O)c2ccc(O)c(NS(C)(=O)=O)c2)cc1 (some centres unmarked) [Compound 6] | 120 °C (dec.) | 1.26 |  | 2 nM |
| CCCCCCCCCCNC1=NS(=O)(=O)N=C1Nc1ccc(CC(C)NC[C@H](O)COc2ccc(O)cc2)cc1 (stereo partly drawn) (as salt: HCl) [Compound 25, 4-((2S)-3-{2-[4-(4-Decylamino-1,1-dioxo-1H-1(lambda(6))-[1,2,5]thiadiazol-3-ylamino)-phenyl]-1-methyl-ethylamino}-2-hydroxy-propoxy)-phenol] | 146 to 155 °C |  |  |  |
| CCCCCCNC1=NS(=O)(=O)N=C1Nc1cccc(CC(C)NC[C@H](O)c2cccc(Cl)c2)c1 (stereo partly drawn) [Compound 9, (1R)-1-(3-Chloro-phenyl)-2-{2-[3-(4-hexylamino-1,1-dioxo-1H-1-.lambda(6) .-[1,2,5]thiadiazol-3-ylamino)-phenyl]-1-methyl-ethylamino}-ethanol] | 90 to 96 °C | 0.74 |  | 204 nM |
